Data reported in patent US9302999B2, “Substituted triazoles as herbicides” (E. I. DU PONT DE NEMOURS AND COMPANY, priority 2012, dated 2016).
Like-named read-outs stand apart in the source and are kept apart here.

Assays:
Assay type in all cases: in vivo
[1] = tested on: foxtail, giant (giant foxtail, Setaria faberii); experiment: Test A pre-/postemergence: foxtail, giant; settings: for pest or weed control at 125 g/ha / pest or weed control at 500 g/ha: Setaria faberi, 240 h
Procedure, shortened: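 Soil medium was loam blended with sand; treatments pre- and postemergence were applied concurrently, postemergence at one- to two-leaf stage. Approximately ten days in greenhouse preceded visual comparison with untreated controls, scored 0 (no effect) to 100 (complete control).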

[2] = tested on: oilseed rape (Brassica napus); experiment: Test D pre-/postemergence: oilseed rape
From the text: (§1) Seeds of plant species selected from bluegrass (annual bluegrass, Poa annua), blackgrass (Alopecurus myosuroides), canarygrass (Phalaris minor), chickweed (common chickweed, Stellaria media), galium (catchweed bedstraw, Galium aparine), bromegrass, downy (downy bromegrass, Bromus tectorum), field poppy (Papaver rhoeas), field violet (Viola arvensis), foxtail, green (green foxtail, Setaria viridis), deadnettle (henbit deadnettle, Lamium amplexicaule), ryegrass, Italian (Italian ryegrass, Lolium multiflorum), kochia (Kochia scoparia), lambsquarters (Chenopodium album), oilseed rape (Brassica napus), pigweed (Amaranthus retroflexus), Russian thistle (Salsola iberica), chamomile (scentless chamomile, Matricaria inodora), speedwell (bird's-eye speedwell, Veronica persica), barley, spring (spring barley, Hordeum vulgare), wheat, spring (spring wheat, Triticum aestivum), buckwheat, wild (wild buckwheat, Polygonum convolvulus), mustard, wild (wild mustard, Sinapis arvensis), oat, wild (wild oat, Avena fatua), radish, wild (wild radish, Raphanus raphanistrum), windgrass (Apera spica-venti), barley, winter (winter barley, Hordeum vulgare), and wheat, winter (winter wheat, Triticum aestivum) were planted into a silt loam soil and treated preemergence with test chemicals formulated in a non-phytotoxic solvent mixture which included a surfactant. At the same time, these same crop and weed species were planted in pots containing the planting medium comprising spaghnum peat moss, vermiculite, wetting agent and starter nutrients and treated with postemergence applications of the test chemicals formulated in the same manner. Plants ranged in height from 2 to 18 cm (1- to 4-leaf stage).
(§2) Treated plants and controls were maintained in a controlled growth environment for 14 to 21 days after which time all species were compared to controls and visually evaluated. Plant response ratings, summarized in Table D, are based on a scale of 0 to 100 where 0 is no effect and 100 is complete control. A dash (-) response means no test result.

[3] = tested on: morningglory (Ipomoea coccinea); experiment: Test C pre-/postemergence: morningglory
Procedure, shortened: (§3)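 Visual injury scored 0–100 (100 = complete control) against untreated controls after 13–15 greenhouse days. Surfactant-containing solvent formulations applied either to soil after sowing (loam/sand) or over 1- to 4-leaf plants, 2–18 cm tall.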

[4] = tested on: chickweed (common chickweed, Stellaria media); experiment: Test C postemergence: chickweed
Procedure, shortened: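 Plants at the 1- to 4-leaf stage (2 to 18 cm tall), grown in pots of peat moss/vermiculite planting medium, received postemergence applications of the formulated test chemicals. After 13 to 15 days in a greenhouse, injury was scored visually versus controls from 0 (no effect) to 100 (complete control).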

[5] = tested on: common (oilseed) sunflower (Helianthus annuus); experiment: Test C pre-/postemergence: sunflower; settings: Preemergence
From the text: Seeds of plant species selected from blackgrass (Alopecurus myosuroides), bromegrass, downy (downy bromegrass, Bromus tectorum), foxtail, green (green foxtail, Setaria viridis), ryegrass, Italian (Italian ryegrass, Lolium multiflorum), winter wheat (Triticum aestivum), wild oat (Avena fatua), galium (catchweed bedstraw, Galium aparine), bermudagrass (Cynodon dactylon), surinam grass (Brachiaria decumbens), cocklebur (common cocklebur, Xanthium strumarium), corn (Zea mays), large crabgrass (Digitaria sanguinalis), woolly cupgrass (Eriochloa villosa), foxtail, giant (giant foxtail, Setaria faberii), goosegrass (Eleusine indica), johnsongrass (Sorghum halepense), kochia (Kochia scoparia), lambsquarters (Chenopodium album), morningglory (Ipomoea coccinea), nightshade (eastern black nightshade, Solanum ptycanthum), nutsedge, yellow (yellow nutsedge, Cyperus esculentus), pigweed (Amaranthus retroflexus), ragweed (common ragweed, Ambrosia elation), soybean (Glycine max), common (oilseed) sunflower (Helianthus annuus), Russian thistle (Salsola kali) and velvetleaf (Abutilon theophrasti) were planted into a blend of loam soil and sand and treated preemergence with test chemicals formulated in a non-phytotoxic solvent mixture which included a surfactant.
At the same time, plants selected from these crop and weed species and also barley (winter barley, Hordeum vulgare), canarygrass (Phalaris minor), chickweed (common chickweed, Stellaria media) windgrass (Apera spica-venti) and deadnettle (henbit deadnettle, Lamium amplexicaule) were planted in pots containing Redi-Earth® planting medium (Scotts Company, 14111 Scottslawn Road, Marysville, Ohio 43041) comprising spaghnum peat moss, vermiculite, wetting agent and starter nutrients and treated with postemergence applications of test chemicals formulated in the same manner. Plants ranged in height from 2 to 18 cm (1- to 4-leaf stage) for postemergence treatments.
as §2, with “greenhouse” for “controlled growth environment”, “13” for “14”, “15 days,” for “21 days”, “C,” for “D,”

[6] = tested on: oat, wild (wild oat, Avena fatua); experiment: Test D pre-/postemergence: oat, wild
From the text: as §1, §2

[7] = tested on: foxtail, green (green foxtail, Setaria viridis); experiment: Test D pre-/postemergence: foxtail, green
Procedure, shortened: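 Scores run from 0 (no effect) to 100 (complete control), assigned by visual comparison with controls after 14 to 21 days in a controlled environment. Both preemergence application to silt loam and postemergence application to 1- to 4-leaf plants were tested.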

[8] = tested on: nightshade (eastern black nightshade, Solanum ptycanthum); experiment: Test C pre-/postemergence: nightshade; settings: Preemergence
Procedure, shortened: as §3

[9] = Postemergence, 31 g ai/ha, scale 0 to 100 (0 no effect, 100 complete control)
[10] = Postemergence, 62 g ai/ha, scale 0 to 100 (0 no effect, 100 complete control)
[11] = Postemergence, 125 g ai/ha, scale 0 to 100, 0 no effect, 100 complete control
[12] = Postemergence, 250 g ai/ha, scale 0 to 100 (0 no effect, 100 complete control)
[13] = Postemergence, 16 g ai/ha, scale 0 to 100
[14] = Preemergence, 16 g ai/ha, scale 0 to 100 (0 no effect, 100 complete control)
[15] = Preemergence, 31 g ai/ha, scale 0 to 100 (0 no effect, 100 complete control)
[16] = Preemergence, 62 g ai/ha, scale 0 to 100
[17] = Preemergence, 125 g ai/ha, scale 0 to 100
[18] = Preemergence, 250 g ai/ha, scale 0 to 100
[19] = Postemergence, 250 g ai/ha, scale 0 to 100
[20] = Preemergence, 62 g ai/ha, scale of 0 to 100, 0 is no effect, 100 is complete control
[21] = 31 g ai/ha, scale 0 to 100 (0 no effect, 100 complete control)
[22] = 62 g ai/ha, scale 0 to 100 (0 no effect, 100 complete control)
[23] = 125 g ai/ha, scale 0 to 100, 0 no effect, 100 complete control
[24] = 31 g ai/ha, scale of 0 to 100, 0 is no effect, 100 is complete control
[25] = 62 g ai/ha, scale of 0 to 100, 0 is no effect, 100 is complete control
[26] = 250 g ai/ha, scale 0 to 100, 0 no effect, 100 complete control

Work on `Cc1nn(-c2ccc(F)cc2)nc1Oc1ccnc(C(F)(F)F)c1` [Compound 129, 4-[[2-(4-fluorophenyl)-5-methyl-2H-1,2,3-triazol-4-yl]oxy]-2-(trifluoromethyl)pyridine] yielded a pest or weed control at 125 g/ha ([1]; post-emergence, Postemergence, 125 g ai/ha, 0 to 100 scale, 0 is no effect, 100 is complete control, read-out: Foxtail, Giant plant response rating) of 90%, a pest or weed control at 500 g/ha ([1]; post-emergence, Postemergence, 500 g ai/ha, visual rating on 0 to 100 scale (0 no effect, 100 complete control), approximately ten days, read-out: Foxtail, Giant plant response rating) of 90% and a pest or weed control at 125 g/ha ([1]; pre-emergence, Preemergence, 125 g ai/ha, 0 to 100 scale where 0 is no effect and 100 is complete control, read-out: Plant response rating, Foxtail, Giant) of 100%. The pest or weed control at 500 g/ha ([1]; pre-emergence, Preemergence, 500 g ai/ha, 0 to 100 scale (0 no effect, 100 complete control), read-out: Plant response rating, Foxtail, Giant) was 100%, the “Plant response rating: Oilseed Rape” value [2, 9] was 80 and the “Plant response rating: Oilseed Rape” value [2, 10] was 95. The “Plant response rating: Oilseed Rape” value [2, 11] was 100, the “Plant response rating: Oilseed Rape” value [2, 12] was 100 and the “Plant response rating, Oilseed Rape” value [2, 13] was 80. For the same compound, the “Plant response rating, Oilseed Rape” value [2, 14] was 0, the “Plant response rating, Oilseed Rape” value [2, 15] was 0 and the “Plant response rating, Oilseed Rape” value [2, 16] was 10. For the same compound, the “Plant response rating, Oilseed Rape” value [2, 17] was 30, the “Plant response rating, Oilseed Rape” value [2, 18] was 60 and the “Plant response rating, Morningglory” value [3, 9] was 50. For the same compound, the “Plant response rating, Morningglory” value [3, 10] was 55, the “Plant response rating, Morningglory” value [3, 11] was 65 and the “Plant response rating, Morningglory” value [3, 19] was 75. For the same compound, the “Plant response rating, Morningglory” value ([3]; Preemergence, 31 g ai/ha, scale of 0 to 100, 0 is no effect, 100 is complete control) was 0, the “Plant response rating, Morningglory” value [3, 20] was 20 and the “Plant response rating, Morningglory” value ([3]; Preemergence, 125 g ai/ha, scale 0 to 100, 0 no effect, 100 complete control) was 60. For the same compound, the “Plant response rating, Morningglory” value ([3]; Preemergence, 250 g ai/ha, scale 0 to 100, 0 no effect, 100 complete control) was 65, the “Plant response rating, Chickweed” value [4, 21] was 15 and the “Plant response rating, Chickweed” value [4, 22] was 45. The “Plant response rating, Chickweed” value [4, 23] was 80, the “Plant response rating, Chickweed” value ([4]; 250 g ai/ha, scale 0 to 100) was 98 and the “Plant response rating, Sunflower” value [5, 24] was 0. The “Plant response rating, Sunflower” value [5, 25] was 0, the “Plant response rating, Sunflower” value [5, 23] was 0 and the “Plant response rating, Sunflower” value [5, 26] was 0. The “Plant response rating: Oat, Wild” value [6, 9] was 10, the “Plant response rating: Oat, Wild” value [6, 10] was 10 and the “Plant response rating: Oat, Wild” value [6, 11] was 20. For the same compound, the “Plant response rating: Oat, Wild” value [6, 12] was 25, the “Plant response rating, Oat, Wild” value [6, 13] was 10 and the “Plant response rating, Oat, Wild” value [6, 14] was 0. For the same compound, the “Plant response rating, Oat, Wild” value [6, 15] was 0, the “Plant response rating, Oat, Wild” value [6, 16] was 5 and the “Plant response rating, Oat, Wild” value [6, 17] was 55. The “Plant response rating, Oat, Wild” value [6, 18] was 100, the “Plant response rating: Foxtail, Green” value [7, 9] was 35 and the “Plant response rating: Foxtail, Green” value [7, 10] was 85. The “Plant response rating: Foxtail, Green” value [7, 11] was 95, the “Plant response rating: Foxtail, Green” value [7, 12] was 100 and the “Plant response rating, Foxtail, Green” value [7, 13] was 35. The “Plant response rating, Foxtail, Green” value [7, 14] was 5, the “Plant response rating, Foxtail, Green” value [7, 15] was 90 and the “Plant response rating, Foxtail, Green” value [7, 16] was 100. For the same compound, the “Plant response rating, Foxtail, Green” value [7, 17] was 100, the “Plant response rating, Foxtail, Green” value [7, 18] was 100 and the “Plant response rating, Nightshade” value [8, 24] was 85. For the same compound, the “Plant response rating, Nightshade” value [8, 25] was 90, the “Plant response rating, Nightshade” value [8, 23] was 90 and the “Plant response rating, Nightshade” value [8, 26] was 95.
In the case of `Fc1ccc(-n2nc(Cc3ccnc(C(F)(F)F)c3)c(OCC(F)(F)F)n2)cc1` [Compound 142], the “Foxtail, Giant plant response rating” value ([1]; Postemergence, 125 g ai/ha, 0 to 100 scale, 0 is no effect, 100 is complete control) is reported as 100, the “Foxtail, Giant plant response rating” value ([1]; Postemergence, 500 g ai/ha, visual rating on 0 to 100 scale (0 no effect, 100 complete control), approximately ten days) is reported as 100 and the “Plant response rating, Foxtail, Giant” value ([1]; Preemergence, 125 g ai/ha, 0 to 100 scale where 0 is no effect and 100 is complete control) is reported as 100. The “Plant response rating, Foxtail, Giant” value ([1]; Preemergence, 500 g ai/ha, 0 to 100 scale (0 no effect, 100 complete control)) was 100, the “Plant response rating, Morningglory” value [3, 9] was 60 and the “Plant response rating, Morningglory” value [3, 11] was 60. For the same compound, the “Plant response rating, Morningglory” value [3, 19] was 80, the “Plant response rating, Morningglory” value [3, 20] was 35 and the “Plant response rating, Chickweed” value [4, 21] was 85. The “Plant response rating, Chickweed” value [4, 22] was 98, the “Plant response rating, Chickweed” value [4, 23] was 98 and the “Plant response rating, Chickweed” value ([4]; 250 g ai/ha, scale 0 to 100) was 98. For the same compound, the “Plant response rating, Sunflower” value [5, 24] was 15, the “Plant response rating, Sunflower” value [5, 23] was 15 and the “Plant response rating, Sunflower” value [5, 26] was 25. For the same compound, the “Plant response rating, Nightshade” value [8, 24] was 95, the “Plant response rating, Nightshade” value [8, 25] was 95 and the “Plant response rating, Nightshade” value [8, 23] was 98. The “Plant response rating, Nightshade” value [8, 26] was 98.
